# Measurements published in patent US10479814B2, “Adenosine receptor activation reagent and the uses of thereof” (Zhejiang Subtropical Crops Research Institute, priority 2014, dated 2019).
# Entries after “also recorded” stand apart in the source; their conditions may differ.
# Tests used:
# Format in all cases: in vivo
# [1] = system: mouse sleep induced by pentobarbital sodium; experiment: sleep induced by threshold dose of pentobarbital sodium
# Method: Male ICR mice were randomly divided into four groups, respectively control group, positivediazepam (1 mg/kg) group, HEA (25 mg/kg) group and DPCPX+HEA (2 mg/kg+25 mg/kg) group. […]
# Regarding the mouse righting reflex disappear for 1 min within 15 min as the hypnagogic criterion, sleep latency and sleep duration were recorded for the mice in each group.
# [2] = system: mouse kidney ischemia reperfusion; experiment: kidney ischemia reperfusion: kidney histopathologic examination (HE); conditions: vs IR group, DPCPX 1 mg/kg; for renal tubulointerstitial impairment score: P<0.01, HEA 5, 7.5, 10 mg/kg, DPCPX 1 mg/kg+HEA 5 or 7.5 mg/kg; for kidney histopathological changes (HE×400): HEA groups printed as 2.5, 5, 7.5 mg/kg, DPCPX+HEA 5 or 7.5 mg/kg
# Method: Male C57BL/6 mice 20-25 g, after one week of adaptive feeding to the animals, were randomly divided into eight groups: sham-operation group, IR group, HEA 5 mg/kg group, HEA 7 mg/kg group, HEA 10 mg/kg group, DPCPX (1 mg/kg) group, DPCPX (1 mg/kg)+HEA (5 mg/kg) group and DPCPX (1 mg/kg)+HEA (7.5 mg/kg) group. The mouse was weighed before operation, then peritoneally injected with pentobarbital sodium 50 mg/kg to anaesthetize the mouse, abdomen was opened by ventromedial incision, blunt dissection and the kidney pedicle was sufficiently exposed, renal ischemia was induced by clapping two side kidney pedicle with non-invasive bulldog clamp, the color of kidney change from bright red to purple black immediately, determination method of success of the experiment model can refer to the methods in literature 7 and 8. At time of 30 min of ischemia the bulldog clamp was loosened, the perfuse was restored, the color of kidney changed gradually from dark red to bright red, showing re perfusion was successful. The wound was stitched. The animals were freely fed water and food. In the sham-operation group, the mice only received operation of abdomen open, kidney pedicle and abdomen suture. The kidney IR mode were made for the mice in the remaining groups. In each drug group, before 15 minute of ischemia, the drug with corresponding concentration was speritoneally injected, in drug combination group, 15 minutes before ischemia, the drugs were given simultaneously. At 24 hours after reperfusion, the mouse was anaesthetized again, the kidney specimen was obtained. The kidney specimen is fixed by 10% formaldehyde solution, paraffin embedded, sectioned, hematoxylin-eosin staining (HE), and the kidney histopathological change was observed under optical microscope.
# [3] = system: mouse kidney ischemia reperfusion; experiment: kidney ischemia reperfusion: apoptosis by TUNEL method; conditions: vs IR group, DPCPX 1 mg/kg; for renal tubular epithelial cell apoptosis number (TUNEL×400): HEA treated group, DPCPX+HEA
# Method: (§1) Male C57BL/6 mice 20-25 g, after one week of adaptive feeding to the animals, were randomly divided into eight groups: sham-operation group, IR group, HEA 5 mg/kg group, HEA 7 mg/kg group, HEA 10 mg/kg group, DPCPX (1 mg/kg) group, DPCPX (1 mg/kg)+HEA (5 mg/kg) group and DPCPX (1 mg/kg)+HEA (7.5 mg/kg) group.
# The mouse was weighed before operation, then peritoneally injected with pentobarbital sodium 50 mg/kg to anaesthetize the mouse, abdomen was opened by ventromedial incision, blunt dissection and the kidney pedicle was sufficiently exposed, renal ischemia was induced by clapping two side kidney pedicle with non-invasive bulldog clamp, the color of kidney change from bright red to purple black immediately, determination method of success of the experiment model can refer to the methods in literature 7 and 8. At time of 30 min of ischemia the bulldog clamp was loosened, the perfuse was restored, the color of kidney changed gradually from dark red to bright red, showing re perfusion was successful. The wound was stitched. The animals were freely fed water and food.
# In the sham-operation group, the mice only received operation of abdomen open, kidney pedicle and abdomen suture. The kidney IR mode were made for the mice in the remaining groups. In each drug group, before 15 minute of ischemia, the drug with corresponding concentration was speritoneally injected, in drug combination group, 15 minutes before ischemia, the drugs were given simultaneously.
# Fetching a part of the stored kidney tissue, conventional paraffin embedded 4 μm of section. Operate according to the method of the specification in kit. […] Randomly selecting 10 400-fold visual fields, calculate apoptosis index AI %=positive cell number/total number of all cell in the visual field×100%.
# [4] = system: IL-1β mRNA in mouse renal cortex; experiment: kidney ischemia reperfusion: real time quantitative PCR of IL-1β; conditions: vs IR group; HEA 5, 7.5, 10 mg/kg; DPCPX 1 mg/kg; DPCPX 1 mg/kg+HEA
# Method: as §1, with “group. […]” for “group.”
# The MPO analysis was conducted according to the specification in the kit. 9.2.6 Real time quantitative PCR analysis of gene expression of ICAM-1, TNF-α and IL-1β; the sequence of primer used in RT-PCR reaction system is as follow:
# PCR amplification reaction system: IQ SYBR Green Super mix 12.5 μL, Forward primer (10 μmo/L) 1 μL, Reverse primer (10 μmol/L) 1 μL, cDNA (water was added to dilute to same level) 10.5 μL. […] The statistics and calculation of experiment results was automatically conducted fluorescence quantitative PCR analyzing software BIO-RAD CFX Manager. Target gene mRNA expression level was calculated by 2-ΔΔCt method, and standardized using the GAPDH mRNA in corresponding specimen a standard.
Compound,"sleep time induced by threshold dose of pentobarbital sodium ([1]; HEA 25 mg/kg, sc, pentobarbital sodium 50 mg/kg)","sleep latency ([1]; HEA 25 mg/kg, sc, pentobarbital sodium 50 mg/kg, vs control group)",renal tubulointerstitial impairment score [2],kidney histopathological changes (HE×400) [2],"TUNEL apoptosis index ([3]; P<0.01, HEA 5, 7.5, 10 mg/kg, DPCPX 1 mg/kg+HEA 5 or 7.5 mg/kg)",renal tubular epithelial cell apoptosis number (TUNEL×400) [3],IL-1β mRNA expression in renal cortex [4],effect of adenosine receptor antagonist on hypnosis effect of the HEA ([1]; DPCPX+HEA 2 mg/kg+25 mg/kg)
"OCCNc1ncnc2c1ncn2[C@@H]1O[C@H](CO)[C@@H](O)[C@H]1O [HEA, N(6)-(2-hydroxyethyl)-adenosine]",extended sleep time of the mice induced by threshold dose of pentobarbital sodium to a certain degree; also recorded: extends mouse sleep time induced by threshold dose of pentobarbital sodium to a certain degree,no statistical difference in sleep latency; also recorded: no significant effect on sleep latency,significantly reduced,significantly reduced compared with IR group,significantly less than IR group,apoptosis number is reduced,significantly reduce the high expression,–
"CCCn1c(=O)c2[nH]c(C3CCCC3)nc2n(CCC)c1=O [DPCPX, reference compound]",–,–,significantly increase renal tubulointerstitial impairment scores,aggravate tissue necrosis,–,significantly increased,significantly increase,hypnosis effect of the HEA is significantly inhibited
